Laboratory results as given in ChEMBL document CHEMBL1201862, “PubChem BioAssay data set” (2004).
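Compound exposure: 48 hours, 5 concentrations, 96-well plates. At the GI50, growth is halved.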 Activity calls are given as the source filed them. No stated cut-off is given here; in the data, active = GI50 up to about 1.1 µM and inactive = higher.

What was measured:
Assay in all cases: DTP human tumour cell line panel, 48 h
[1] = system: DLD-1
[2] = system: DMS-114
[3] = system: DMS-273
[4] = system: KM-20L2
[5] = system: LXFL 529
[6] = system: RXF 631
[7] = system: SNB-78
[8] = system: XF498
[9] = system: HOP-18

Measured: GI50

C#CCNC(=O)NC(CCCNC(=O)OCc1ccccc1)C(=O)OCc1ccccc1 (configuration not stated)
inactive: [1] > 100 µM | [2] > 100 µM | [3] > 100 µM | [4] > 100 µM | [5] > 100 µM | [6] > 100 µM | [7] > 100 µM | [8] 12.9 µM

COc1ccc(C2=NOP(c3ccccc3)(c3ccccc3)(c3ccccc3)C2)cc1
inactive: [1] 20.8 µM | [2] 8.61 µM | [3] 16.6 µM | [9] 24.9 µM | [4] 10 µM | [5] 5.57 µM | [6] 22.4 µM | [7] 36.5 µM | [8] 20.7 µM

NC(=O)CN(CC(N)=O)C(N)=O
inactive: [2] > 100 µM | [3] > 100 µM | [9] > 100 µM | [4] > 100 µM | [5] > 100 µM | [7] > 100 µM | [8] > 100 µM

COc1cc(Br)c(C2OCCCO2)cc1OCc1ccccc1
inactive: [1] 39.8 µM | [2] 47.1 µM | [3] 37.6 µM | [4] > 100 µM | [5] 48.2 µM | [6] > 100 µM | [7] 61.4 µM

CC(=O)O[C@H]1CCC2[C@@H]3CCC4Nc5c(cnn5-c5ccccc5)C[C@]4(C)C3CC[C@@]21C (some centres not stated)
inactive: [1] 32.7 µM | [2] 11.7 µM | [3] 3.18 µM | [9] 31.8 µM | [4] 8 µM | [5] 12.6 µM | [6] 14.9 µM | [7] 14.4 µM | [8] 6.52 µM

CCc1ccccc1-n1c2nc(=O)n(C)c(=O)c-2nc2ccccc21
inactive: [1] 16.3 µM | [2] 3.83 µM | [3] 8.71 µM | [9] 11.9 µM | [4] 4.08 µM | [5] 11.1 µM | [7] 16.9 µM | [8] 10.3 µM

CCCN(CCCCC(NC(C)=O)C(=O)NCc1ccccc1)C(=O)NCCCl (configuration not stated)
inactive: [1] > 100 µM | [2] > 100 µM | [3] > 100 µM | [9] > 100 µM | [4] > 100 µM | [5] > 100 µM | [6] > 100 µM | [8] > 100 µM

COc1ccc(C(C#N)NNc2nc(C)cc(O)n2)cc1OC (configuration not stated)
inactive: [1] > 100 µM | [2] > 100 µM | [3] > 100 µM | [9] > 100 µM | [4] > 100 µM | [5] > 100 µM | [7] > 100 µM

COc1ccc2c(c1)C(CCN)C(=O)N2 (configuration not stated)
inactive: [1] > 100 µM | [2] > 100 µM | [3] > 100 µM | [9] > 100 µM | [4] > 100 µM | [5] > 100 µM | [6] > 100 µM | [7] > 100 µM | [8] > 100 µM

O=C(c1ccco1)N(C(=S)N1CCN(c2ccccn2)CC1)C1CCCCC1
inactive: [1] > 100 µM | [2] 77.3 µM | [3] > 100 µM | [9] > 100 µM | [4] > 100 µM | [5] > 100 µM | [7] > 100 µM

COc1ccc(/C=C/C(=O)c2sc(NC(=S)NC(=O)c3ccc(Cl)cc3)nc2C)cc1OC
inactive: [1] 49.4 µM | [2] 41.6 µM | [9] 5.89 µM | [4] > 100 µM | [5] 32.2 µM | [6] 48.6 µM | [7] 54.3 µM | [8] 34.8 µM
